Values quoted from earlier work as cited in patent US20130267562A1, “ACTIVE ENANTIOMER OF DODECYL 2-(N,N-DIMETHYLAMINO)-PROPIONATE” (NEXMED HOLDINGS, INC, priority 2010, published 2013).

SMILES: CCCCCCCCCCCCOC(=O)C(C)N(C)C (racemic) [Racemic DDAIP, dodecyl 2-methyl-2-(N,N-dimethylamino)acetate]
- miscibility with organic solvents (most organic solvents): miscible with most organic solvents
- solubility in water (water): not soluble
